Structures are written as SMILES. “And” between values parts separate entries of the source, which are not always exact repeats. Equal values may be shown once.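 1) Cells in 96-well plates. 2) Compound, 48 h, 5 concentrations. 3) Linear interpolation between surrounding doses. 4) Unreached endpoint = highest concentration. Abbreviation: GI50, concentration required for 50% inhibition of growth. TGI: concentration producing complete growth inhibition.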 Where only a bound is given, the exact number is not on record here.

Some test systems named below: LOX IMVI melanoma; M14 melanoma; NCI-H522 lung; HL-60(TB) leukemia; UACC-62 melanoma; OVCAR-5 ovarian; OVCAR-3 ovarian; EKVX NSCLC; SK-MEL-28 melanoma; ACHN renal.
What all share (assay): inhibition of tumour cell growth, NCI panel, 48 h

Regarding `C[C@H]1CC(=O)[C@@]2(O)C#C/C=C\C#C[C@@H]3Nc4c(cc(O)c5c4C(=O)c4ccccc4C5=O)[C@]24O[C@]314`, the GI50 with LOX IMVI melanoma is 0.0025 µM; in the assay on M14 melanoma it was 0.0025 µM; in the assay on NCI-H522 lung it was 0.032 µM; with HL-60(TB) leukemia, 0.0025 µM; with EKVX NSCLC, 0.292 µM; in the assay on SK-MEL-28 melanoma, 0.0409 µM. Moreover, the TGI is 0.18 µM and 0.326 µM with LOX IMVI melanoma; 0.0645 µM and 0.0371 µM in the assay with M14 melanoma; 0.293 µM and 0.384 µM in the assay on NCI-H522 lung; 0.00552 µM and 0.0052 µM in the assay with HL-60(TB) leukemia; 0.133 µM with UACC-62 melanoma; 0.679 µM in the assay with OVCAR-5 ovarian. The TGI in the assay on OVCAR-3 ovarian is greater than 25 µM; in the assay with EKVX NSCLC, 0.885 µM and 1.4 µM; with SK-MEL-28 melanoma, 0.241 µM and 0.729 µM; in the assay on ACHN renal, 0.0252 µM.

Regarding `COc1ccccc1OCC(O)CO` (stereo unspecified), the GI50 in the assay with LOX IMVI melanoma, with M14 melanoma, in the assay with NCI-H522 lung, in the assay on HL-60(TB) leukemia, in the assay on UACC-62 melanoma and in the assay with OVCAR-5 ovarian was greater than 100 µM in each case. The GI50 in the assay on OVCAR-3 ovarian, with EKVX NSCLC, in the assay on SK-MEL-28 melanoma and in the assay on ACHN renal was greater than 100 µM throughout. Besides, the TGI in the assay on LOX IMVI melanoma, in the assay on M14 melanoma, in the assay with NCI-H522 lung, in the assay on HL-60(TB) leukemia, in the assay on UACC-62 melanoma and in the assay with OVCAR-5 ovarian was greater than 100 µM in each case. Moreover, the TGI in the assay with OVCAR-3 ovarian, in the assay on EKVX NSCLC, in the assay with SK-MEL-28 melanoma and in the assay on ACHN renal was greater than 100 µM each time.

On to `COC(=N)/C(=C1\OC(N)=C(c2ccc(Cl)cc2)C1=O)c1ccc(Cl)cc1`, for which the TGI with LOX IMVI melanoma, in the assay on M14 melanoma, in the assay on NCI-H522 lung, in the assay on HL-60(TB) leukemia, in the assay on UACC-62 melanoma and with OVCAR-5 ovarian was greater than 100 µM throughout. Also, the TGI in the assay on OVCAR-3 ovarian, with EKVX NSCLC, in the assay on SK-MEL-28 melanoma and in the assay on ACHN renal was greater than 100 µM each time.

Turning to `C(=C1/CCCCC([n+]2ccccc2)=N1)/c1ccccc1`, the TGI in the assay on LOX IMVI melanoma, in the assay with M14 melanoma, in the assay on NCI-H522 lung, in the assay with HL-60(TB) leukemia, with UACC-62 melanoma and in the assay with OVCAR-5 ovarian was greater than 100 µM throughout. In addition, the TGI in the assay with OVCAR-3 ovarian, with EKVX NSCLC, with SK-MEL-28 melanoma and in the assay with ACHN renal was greater than 100 µM throughout.

Take `CCNC1=CC(=O)c2ncccc2C1=O`: the GI50 was 1 µM with LOX IMVI melanoma; 1.11 µM with M14 melanoma; 1.79 µM in the assay on NCI-H522 lung; 1.87 µM in the assay with HL-60(TB) leukemia; 1.06 µM in the assay with UACC-62 melanoma; 1.79 µM with OVCAR-5 ovarian. Besides, the GI50 is 0.807 µM in the assay with OVCAR-3 ovarian, 4.68 µM in the assay with EKVX NSCLC, 1.71 µM with SK-MEL-28 melanoma and 5.9 µM with ACHN renal. The TGI in the assay with LOX IMVI melanoma is 3.22 µM; with M14 melanoma it was 2.46 µM; in the assay on NCI-H522 lung, 4.23 µM; with HL-60(TB) leukemia it was 7.13 µM; in the assay on UACC-62 melanoma, 2.3 µM; in the assay on OVCAR-5 ovarian, 3.47 µM. Besides, the TGI in the assay with OVCAR-3 ovarian was determined as 5.41 µM; in the assay on EKVX NSCLC, 18.5 µM; in the assay on SK-MEL-28 melanoma it was 3.52 µM; in the assay on ACHN renal, 19.6 µM.

Regarding `CC(Cl)CC(=O)Nc1ccc2c(c1)oc(=O)c1cc(NC(=O)CC(C)Cl)ccc12` (stereo unspecified), the GI50 in the assay on LOX IMVI melanoma was 4.46 µM; with M14 melanoma it was 12.4 µM; in the assay on NCI-H522 lung, 15.2 µM; with HL-60(TB) leukemia, 9.03 µM; with UACC-62 melanoma, 15.1 µM; in the assay on OVCAR-5 ovarian, 16.8 µM. The GI50 with OVCAR-3 ovarian is 14.3 µM; in the assay with EKVX NSCLC, 27 µM; in the assay on SK-MEL-28 melanoma it was 16.4 µM; in the assay with ACHN renal, 12.2 µM. In addition, the TGI in the assay on LOX IMVI melanoma is 21.9 µM; in the assay on M14 melanoma it was 37.5 µM; in the assay with NCI-H522 lung, 36.8 µM; in the assay on HL-60(TB) leukemia, 29.3 µM; in the assay with UACC-62 melanoma, 49.9 µM; in the assay with OVCAR-5 ovarian, 46.3 µM. Besides, the TGI stood at 31.1 µM with OVCAR-3 ovarian, 88 µM in the assay with EKVX NSCLC, 34.2 µM in the assay with SK-MEL-28 melanoma and 31.8 µM in the assay with ACHN renal.

As to `CCCCCCCCSC(SCCCCCCCC)=C1C(=O)N(c2ccccc2)N=C1C`, the TGI in the assay on LOX IMVI melanoma is 36.2 µM; in the assay on M14 melanoma, greater than 100 µM; in the assay on NCI-H522 lung, 57.1 µM; in the assay with HL-60(TB) leukemia, 43.7 µM; in the assay on UACC-62 melanoma, greater than 100 µM; with OVCAR-5 ovarian, greater than 100 µM. Besides, the TGI in the assay with OVCAR-3 ovarian, in the assay on EKVX NSCLC, with SK-MEL-28 melanoma and in the assay on ACHN renal was greater than 100 µM in each case.

As to `NC(=O)Cn1c(=O)[nH]c(=O)c2[nH]cnc21`, the TGI in the assay on LOX IMVI melanoma, in the assay with M14 melanoma, with NCI-H522 lung, with HL-60(TB) leukemia, with UACC-62 melanoma and in the assay with OVCAR-5 ovarian was greater than 100 µM each time. The TGI with OVCAR-3 ovarian, with EKVX NSCLC, with SK-MEL-28 melanoma and in the assay with ACHN renal was greater than 100 µM each time.

On to `O=c1c2c(=NCCCN3CCCC3)cc3c(=O)n(CCCN4CCCC4)c(=O)c4c(NCCCN5CCCC5)cc(c(O)n1CCCN1CCCC1)c2c4-3`, for which the GI50 in the assay with LOX IMVI melanoma was 1.87 µM; in the assay with M14 melanoma, 6.86 µM; in the assay on NCI-H522 lung, 1.44 µM; with HL-60(TB) leukemia, 11.2 µM; in the assay on UACC-62 melanoma it was 2.34 µM; in the assay with OVCAR-5 ovarian, 1.64 µM. Besides, the GI50 with OVCAR-3 ovarian is 2.88 µM; in the assay with EKVX NSCLC, 2.79 µM; with SK-MEL-28 melanoma, 2.53 µM; in the assay with ACHN renal it was 2.55 µM. For the same compound, the TGI in the assay on LOX IMVI melanoma worked out at 4.19 µM; with M14 melanoma, 20.3 µM; in the assay on NCI-H522 lung, 5.53 µM; in the assay with HL-60(TB) leukemia, 73.5 µM; with UACC-62 melanoma it was 5.12 µM; with OVCAR-5 ovarian, 4.74 µM. Also, the TGI with OVCAR-3 ovarian was 7.03 µM; in the assay with EKVX NSCLC it was 12.9 µM; with SK-MEL-28 melanoma it was 5.31 µM; in the assay on ACHN renal, 26.4 µM.
